Test results from patent publication US8828932B2, “Bifunctional molecules for inactivating HIV and blocking HIV entry” (New York Blood Center, Inc., priority 2010, dated 2014).

How the values were obtained:
[1] = tested on: HIV-1 IIIB chronically infected H9 cells / MT-2 cells; assay type: cell-based
Experimental: HIV-1-mediated cell-cell fusion was determined by a dye transfer assay (Lu H et al. J Virol Methods 107:155-161, 2003.) using Calcein AM-labeled HIV-1IIIB chronically infected H9 (H9/HIV-1 IIIB) cells as effector cells and MT-2 cells as target cells.

[2] = tested on: HIV-1 IIIB (B, X4)
Experimental: The inhibitory activity of the bifunctional molecule on HIV-1 IIIB infection was determined by ELISA for p24 production (Jiang S et al. J Exp Med 174:1557-1563, 1991). Briefly, MT-2 cells were infected with HIV-1IIIB at 100 TCID50 (50% tissue culture infective dose) in RPMI 1640 medium containing 10% FBS in the presence or absence of an antigen specific antiserum or IgG antibody in serial 2-fold dilutions at 37° C. overnight. The culture supernatants were then removed and fresh media were added. On day 4 post-infection, the culture supernatants were collected and mixed with equal volumes of 5% TRITON™ X-100 for the detection in the p24 protein ELISA.

[3] = tested on: HIV-1 Bal (B, R5); assay type: cell-based
Experimental: The cells were harvested and lysed on the fourth day post-infection with 50 μl of lysing reagent. The luciferase activity was analyzed using a luciferase kit (Promega) and a luminometer (Ultra 386, Tecan) according to the manufacturer's instruction. The percent inhibition of luciferase activity was calculated.

[4] = tested on: 92US657 (B, R5); assay type: cell-based, HIV-1
Experimental: (§1) The inhibitory activity of the bifunctional molecule on infection by primary HIV-1 isolates, 92US657 (B, R5), 94UG103 (A, X4R5), 93MW959 (C, R5), RU570 (G, R5) and 92TH009 (E/A, R5) was determined (Jiang S et al. Antimicrob Agents Chemother 48:4349-4359, 2004). Briefly, peripheral blood mononuclear cells (PBMCs) were isolated from the blood of healthy donors using a standard density gradient (Histopaque-1077, Sigma) centrifugation. After incubation at 37° C. for 2 hr, the nonadherent cells were collected and resuspended at 5×10^5/ml in RPMI 1640 medium containing 10% FBS, 5 μg of phytohemagglutinin (PHA)/ml, and 100 U of IL-2/ml, followed by incubation at 37° C. for 3 days. The PHA-stimulated cells were infected with the corresponding primary HIV-1 isolates at a multiplicity of infection (MOI) of 0.01 in the absence or presence of antisera at a serial 2-fold dilution. The supernatants were collected 7 days post-infection and tested for p24 antigen by ELISA as described above. The IC50 was calculated using the […]™ software as described above.

[5] = tested on: 93MW959 (C, R5); assay type: cell-based, HIV-1
Experimental: as §1

[6] = tested on: 94UG103 (A, X4R5); assay type: cell-based, HIV-1
Experimental: as §1

[7] = tested on: RU570 (G, R5); assay type: cell-based, HIV-1
Experimental: as §1

[8] = tested on: 92TH009 (E/A, R5); experiment: Primary HIV-1 isolate infection of PBMCs, p24 ELISA; assay type: cell-based
Experimental: as §1

[9] = tested on: HIV-1 IIIB (B, X4); experiment: Inactivation of cell-free virus, PEG 6000 precipitation, MT-2 cells, p24; assay type: cell-based; details: FIG. 17, MT-2 cells
Experimental: (§2) Briefly, HIV-1 isolate (500 TCID50/ml) was added to 100 μl of the samples with different concentration and incubate on 4° C. for 1 hour. Then, PEG 6000 was added to the final concentration of 3% and centrifuge on a microfuge at 15,000 rpm for 30 min. The supernatants were removed, and the pellet was washed with PBS and resuspended to 100 μl. MT-2 or TZM-bl cells (1×10^5/ml) were added at 100 μl/well, and cultured at 37° C. for 3 days. p24 production in MT-2 or luciferase activity was determined according to kit manufacturer' instruction.

[10] = tested on: HIV-1 Bal (B, R5); experiment: Inactivation of cell-free virus, PEG 6000 precipitation, TZM-bl cells, luciferase; assay type: cell-based; details: FIG. 18, luciferase
Experimental: as §2

enfuvirtide
IC50 [1]: 20.1 nM
IC90 [1]: 41.7 nM
IC50 [2]: 17.3 nM
IC90 [2]: 117 nM
IC50 [3]: 43.4 nM
IC90 [3]: > 250 nM
IC50 [4]: 56.1 nM
IC90 [4]: 224 nM
IC50 [5]: 4.7 nM
IC90 [5]: 18.8 nM
IC50 [6]: 6.67 nM
IC90 [6]: 29.4 nM
IC50 [7]: 44.1 nM
IC90 [7]: 110 nM
IC50 ([8]; read-out: IC50, HIV-1 replication 92TH009 (E/A, R5)): 1.43 nM
IC90 ([8]; read-out: IC90, HIV-1 replication 92TH009 (E/A, R5)): 7.99 nM
virus inactivation activity, HIV-1 IIIB [9]: no significant effects on virus
virus inactivation activity, HIV-1 Bal [10]: no significant effects on virus
